Assay results taken from patent publication US11339171B2, “MDM2 inhibitors” (Gan & Lee Pharmaceuticals, priority 2017, dated 2022).
pIC50: −log10 of the molar value. Where “and” joins values, the source holds several entries; their conditions need not be identical. Identical values can stand only once. Like-named read-outs stand apart in the source and are kept apart here.

Tests used:
[1] = Pharmacokinetics in ICR mice after intravenous and intragastric administration; type: in vivo; details: for MRT last: read-out: MRT(0-t); for MRT inf: read-out: MRT(0-∞); for Vd: read-out: Vz
Method in brief: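 Male ICR mice (6-9 weeks, 20-30 g, n=3 per route) were fasted overnight and dosed at 2 mg/kg i.v. or 5 mg/kg intragastrically in 5% DMSO/40% PEG400/55% (10% HP-β-CD in saline). Plasma levels were measured by LC-MS/MS after protein precipitation (LLOQ 1 ng/mL), and non-compartmental PK parameters were calculated.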

[2] = system: human osteosarcoma cell line SJSA-1; experiment: Inhibition of proliferation of human osteosarcoma cell line SJSA-1 (DAPI staining, In Cell Analyzer); details: Homo sapiens, SJSA-1, 72 h, read-out: IC50 (nM), inhibitory activity on proliferation of human osteosarcoma cell line SJSA-1, SJSA-1, incubated 72 h
MDM2 = target: T1, MDM2 (Homo sapiens, UniProt Q00987); experiment: Inhibition test of MDM2-P53 (GST-MDM2, Biotin-P53, Anti-GST-Tb, SA-XL665); type: binding
T1 construct: made in house
T1 sequence (Q00987 whole entry): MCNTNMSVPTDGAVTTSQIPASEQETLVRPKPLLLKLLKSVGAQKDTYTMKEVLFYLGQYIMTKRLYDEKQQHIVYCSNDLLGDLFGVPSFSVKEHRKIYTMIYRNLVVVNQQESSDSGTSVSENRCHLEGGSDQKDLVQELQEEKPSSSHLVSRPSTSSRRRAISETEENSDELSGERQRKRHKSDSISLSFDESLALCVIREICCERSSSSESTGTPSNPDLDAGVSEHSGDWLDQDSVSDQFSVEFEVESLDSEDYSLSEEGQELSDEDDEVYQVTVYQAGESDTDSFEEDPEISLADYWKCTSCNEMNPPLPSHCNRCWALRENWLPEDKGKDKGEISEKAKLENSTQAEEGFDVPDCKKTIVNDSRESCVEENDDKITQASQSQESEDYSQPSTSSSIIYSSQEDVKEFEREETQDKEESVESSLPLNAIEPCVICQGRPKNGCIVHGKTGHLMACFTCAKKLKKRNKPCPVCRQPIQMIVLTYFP
Method in brief: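 Binding was measured by TR-FRET with GST-MDM2 at 4 nM final in PBS with 0.1% BSA, 5 mM DTT and 1 mM AEBSF. Compounds were tested as twelve-point 5-fold dilutions and incubated with the detection mix for 90 min at 25 °C with shaking before plate-reader reading and curve fitting.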

[3] = ICR mice, IV 2 mg/kg, individual animal, 2 mg/kg
[4] = ICR mice, PO 5 mg/kg, individual animal, 5 mg/kg
[5] = male, ICR, mouse, plasma, iv, 2 mg/kg, ICR mice, IV 2 mg/kg, individual animal
[6] = male, ICR, mouse, plasma, iv, 2 mg/kg, ICR mice, IV 2 mg/kg, individual animal, read-out: AUC(0-t)
[7] = male, ICR, mouse, plasma, iv, 2 mg/kg, ICR mice, IV 2 mg/kg, individual animal, read-out: Cmax
[8] = male, ICR, mouse, plasma, iv, 2 mg/kg, ICR mice, IV 2 mg/kg, individual animal, read-out: t1/2 (converted)
[9] = male, ICR, mouse, plasma, iv, 2 mg/kg, ICR mice, IV 2 mg/kg, mean of 3 animals
[10] = male, ICR, mouse, plasma, iv, 2 mg/kg, ICR mice, IV 2 mg/kg, mean of 3 animals, read-out: AUC(0-t)
[11] = male, ICR, mouse, plasma, iv, 2 mg/kg, ICR mice, IV 2 mg/kg, mean of 3 animals, read-out: Cmax
[12] = male, ICR, mouse, plasma, iv, 2 mg/kg, ICR mice, IV 2 mg/kg, mean of 3 animals, read-out: Tmax
[13] = male, ICR, mouse, plasma, iv, 2 mg/kg, ICR mice, IV 2 mg/kg, mean of 3 animals, read-out: t1/2 (converted)
[14] = male, ICR, mouse, plasma, po, 5 mg/kg, ICR mice, PO 5 mg/kg, individual animal
[15] = male, ICR, mouse, plasma, po, 5 mg/kg, ICR mice, PO 5 mg/kg, individual animal, read-out: Cmax
[16] = male, ICR, mouse, plasma, po, 5 mg/kg, ICR mice, PO 5 mg/kg, individual animal, read-out: Tmax
[17] = male, ICR, mouse, plasma, po, 5 mg/kg, ICR mice, PO 5 mg/kg, individual animal, read-out: t1/2 (converted)
[18] = male, ICR, mouse, plasma, po, 5 mg/kg, ICR mice, PO 5 mg/kg, mean of 3 animals
[19] = male, ICR, mouse, plasma, po, 5 mg/kg, ICR mice, PO 5 mg/kg, mean of 3 animals, read-out: AUC(0-t)
[20] = male, ICR, mouse, plasma, po, 5 mg/kg, ICR mice, PO 5 mg/kg, mean of 3 animals, read-out: Cmax
[21] = male, ICR, mouse, plasma, po, 5 mg/kg, ICR mice, PO 5 mg/kg, mean of 3 animals, read-out: Tmax
[22] = male, ICR, mouse, plasma, po, 5 mg/kg, ICR mice, PO 5 mg/kg, mean of 3 animals, read-out: t1/2 (converted)
[23] = male, ICR, mouse, plasma, po, 5 mg/kg, oral intragastric administration 5 mg/kg, read-out: AUC0-t
[24] = male, ICR, mouse, plasma, po, 5 mg/kg, oral intragastric administration 5 mg/kg, read-out: half-life (converted)
[25] = male, mouse, plasma, ICR mice, PO 5 mg/kg vs IV 2 mg/kg, from mean values, read-out: F* (bioavailability)

## COc1ccc(-c2nc3c(n2C(C)C)[C@@]2(C(=O)Nc4cc(Cl)ccc42)N(c2cc(Cl)cnc2C)C3=O)c(OC)c1 [Example S-61, (S)-6-chloro-5′-(5-chloro-2-methylpyridin-3-yl)-2′-(2,4-dimethoxyphenyl)-3′-isopropyl-3′H-spiro[dihydroindole-3,4′-pyrrolo[3,4-d]imidazole]-2,6′(5′H)-dione]
[1]; [3]
  AUC(0-t): 5346.76 ng·h/mL and 4640.74 ng·h/mL
  AUC(0-∞): 5483.62 ng·h/mL and 4724.28 ng·h/mL
  CL: 6.08 mL/min/kg and 7.06 mL/min/kg
  Cmax: 3244.96 ng/mL and 2994.43 ng/mL
  MRT(0-t): 1.26 h and 1.21 h
  MRT(0-∞): 1.42 h and 1.32 h
  Vz: 0.60 L/kg and 0.67 L/kg
  t1/2: 1.15 h and 1.09 h
[1]; [4]
  AUC(0-t): 2462.65 ng·h/mL and 4960.30 ng·h/mL and 3162.34 ng·h/mL
  AUC(0-∞): 5500.70 ng·h/mL and 3530.81 ng·h/mL
  Cmax: 2489.40 ng/mL and 1772.67 ng/mL
  MRT(0-t): 2.03 h and 1.91 h
  MRT(0-∞): 3.00 h
  Tmax: 0.50 h
  t1/2: 2.71 h and 2.98 h
[1]; [5]
  AUC(0-inf): 3630 ng·h/mL
  clearance: 9.19 mL/min/kg
  MRT last: 0.99 h
  MRT inf: 1.07 h
  Vd: 0.8 L/kg
[1]; [6]
  AUC(0-t): 3580 ng·h/mL
[1]; [7]
  Cmax: 3250 ng/mL
[1]; male, ICR, mouse, plasma, iv, 2 mg/kg, ICR mice, IV 2 mg/kg, individual animal, read-out: Tmax
  Tmax: 0.08 h
[1]; [8]
  half-life: 1 h
[1]; [9]
  AUC(0-inf): 4610 ng·h/mL
  clearance: 7.44 mL/min/kg
  MRT last: 1.15 h
  MRT inf: 1.27 h
  Vd: 0.69 L/kg
[1]; [10]
  AUC(0-t): 4520 ng·h/mL
[1]; [11]
  Cmax: 3160 ng/mL
[1]; [12]
  Tmax: 0.083 h
[1]; [13]
  half-life: 1.08 h
[1]; [14]
  AUC(0-inf): 2770 ng·h/mL
  MRT last: 1.57 h
  MRT inf: 2.85 h
[1]; [15]
  Cmax: 2430 ng/mL
[1]; [16]
  Tmax: 0.25 h
[1]; [17]
  half-life: 3.58 h
[1]; [18]
  AUC(0-inf): 3930 ng·h/mL
  MRT last: 1.84 h
  MRT inf: 2.95 h
[1]; [19]
  AUC(0-t): 3530 ng·h/mL
[1]; [20]
  Cmax: 2230 ng/mL
[1]; [21]
  Tmax: 0.33 h
[1]; [22]
  half-life: 3.09 h
[1]; [23]
  AUC(0-t): 3530 ng·h/mL
[1]; [24]
  half-life: 3.09 h
[1]; [25]
  bioavailability: 31.2%
[2]
  IC50: 5.5 nM
MDM2
  pIC50: 8.88

## COc1cc(OC(C)C)ncc1-c1nc2c(n1C(C)C)[C@@]1(C(=O)Nc3cc(Cl)ccc31)N(c1cc(Cl)ccc1C)C2=O [Example S-69, (S)-6-chloro-5′-(5-chloro-2-methylphenyl)-2′-(6-isopropoxy-4-methoxypyridin-3-yl)-3′-isopropyl-3′H-spiro[dihydroindole-3,4′-pyrrolo[3,4-d]imidazole]-2,6′(5′H)-dione]
[1]; [3]
  AUC(0-t): 50006.21 ng·h/mL and 52203.96 ng·h/mL
  AUC(0-∞): 50659.35 ng·h/mL and 52314.11 ng·h/mL
  CL: 0.66 mL/min/kg
  Cmax: 5141.60 ng/mL and 6038.43 ng/mL
  MRT(0-t): 4.62 h and 4.30 h
  MRT(0-∞): 4.95 h and 4.35 h
  Tmax: 0.50 h and 0.08 h
  Vz: 0.23 L/kg
  t1/2: 4.02 h and 2.83 h
[1]; [4]
  AUC(0-t): 106563.84 ng·h/mL and 85266.27 ng·h/mL
  AUC(0-∞): 106654.00 ng·h/mL and 85298.58 ng·h/mL
  Cmax: 10867.97 ng/mL and 11828.43 ng/mL
  MRT(0-t): 5.03 h and 4.46 h
  MRT(0-∞): 5.04 h and 4.47 h
  t1/2: 2.28 h and 2.03 h
[1]; [5]
  AUC(0-inf): 53200 ng·h/mL
  clearance: 0.63 mL/min/kg
  MRT last: 4.38 h
  MRT inf: 4.44 h
  Vd: 0.16 L/kg
[1]; [6]
  AUC(0-t): 53100 ng·h/mL
[1]; [7]
  Cmax: 5980 ng/mL
[1]; [8]
  half-life: 2.88 h
[1]; [9]
  AUC(0-inf): 52100 ng·h/mL
  clearance: 0.64 mL/min/kg
  MRT last: 4.43 h
  MRT inf: 4.58 h
  Vd: 0.18 L/kg
[1]; [10]
  AUC(0-t): 51800 ng·h/mL
[1]; [11]
  Cmax: 5720 ng/mL
[1]; [12]
  Tmax: 0.222 h
[1]; [13]
  half-life: 3.24 h
[1]; [14]
  AUC(0-inf): 69300 ng·h/mL
  MRT last: 4.92 h
  MRT inf: 4.94 h
[1]; male, ICR, mouse, plasma, po, 5 mg/kg, ICR mice, PO 5 mg/kg, individual animal, read-out: AUC(0-t)
  AUC(0-t): 69200 ng·h/mL
[1]; [15]
  Cmax: 7630 ng/mL
[1]; [16]
  Tmax: 2 h
[1]; [17]
  half-life: 2.24 h
[1]; [18]
  AUC(0-inf): 87100 ng·h/mL
  MRT last: 4.8 h
  MRT inf: 4.82 h
[1]; [19]
  AUC(0-t): 87000 ng·h/mL
[1]; [20]
  Cmax: 10100 ng/mL
[1]; [21]
  Tmax: 2 h
[1]; [22]
  half-life: 2.18 h
[1]; [23]
  AUC(0-t): 87000 ng·h/mL
[1]; [24]
  half-life: 2.18 h
[1]; [25]
  bioavailability: 67.2%
[2]
  IC50: 2.29 nM
MDM2
  pIC50: 8.75

## CCOc1cc(OC)c(-c2nc3c(n2C(C)C)[C@@]2(C(=O)Nc4cc(Cl)ccc42)N(c2cc(Cl)ccc2C)C3=O)cn1 [Example S-72, (S)-6-chloro-5′-(5-chloro-2-methylphenyl)-2′-(6-ethoxy-4-methoxypyridin-3-yl)-3′-isopropyl-3′H-spiro[dihydroindole-3,4′-pyrrolo[3,4-d]imidazole]-2,6′(5′H)-dione]
[1]; [3]
  AUC(0-t): 11802.83 ng·h/mL and 14847.37 ng·h/mL
  AUC(0-∞): 12174.58 ng·h/mL and 17305.95 ng·h/mL
  CL: 2.74 mL/min/kg and 1.93 mL/min/kg
  Cmax: 4839.23 ng/mL and 3686.88 ng/mL
  MRT(0-t): 1.52 h and 1.96 h
  MRT(0-∞): 1.71 h and 2.98 h
  Tmax: 0.08 h and 1.00 h
  Vz: 0.29 L/kg and 0.36 L/kg
  t1/2: 1.23 h and 2.16 h
[1]; [4]
  AUC(0-t): 51286.19 ng·h/mL and 23996.12 ng·h/mL and 26941.23 ng·h/mL
  AUC(0-∞): 51351.03 ng·h/mL and 24161.28 ng·h/mL and 27586.31 ng·h/mL
  Cmax: 7160.86 ng/mL and 6289.71 ng/mL
  MRT(0-t): 2.18 h and 2.66 h
  MRT(0-∞): 2.23 h and 2.84 h
  Tmax: 1.00 h
  t1/2: 2.54 h and 1.13 h and 1.47 h
[1]; [5]
  AUC(0-inf): 11900 ng·h/mL
  clearance: 2.8 mL/min/kg
  MRT last: 1.53 h
  MRT inf: 1.78 h
  Vd: 0.34 L/kg
[1]; [6]
  AUC(0-t): 11500 ng·h/mL
[1]; [7]
  Cmax: 4630 ng/mL
[1]; [8]
  half-life: 1.39 h
[1]; [9]
  AUC(0-inf): 13800 ng·h/mL
  clearance: 2.49 mL/min/kg
  MRT last: 1.67 h
  MRT inf: 2.16 h
  Vd: 0.33 L/kg
[1]; [10]
  AUC(0-t): 12700 ng·h/mL
[1]; [11]
  Cmax: 4390 ng/mL
[1]; [12]
  Tmax: 0.389 h
[1]; [13]
  half-life: 1.59 h
[1]; [15]
  Cmax: 7870 ng/mL
[1]; [14]
  MRT last: 3.95 h
  MRT inf: 3.98 h
[1]; [16]
  Tmax: 0.5 h
[1]; [18]
  AUC(0-inf): 34400 ng·h/mL
  MRT last: 2.93 h
  MRT inf: 3.01 h
[1]; [19]
  AUC(0-t): 34100 ng·h/mL
[1]; [20]
  Cmax: 7110 ng/mL
[1]; [21]
  Tmax: 0.67 h
[1]; [22]
  half-life: 1.72 h
[1]; [23]
  AUC(0-t): 34100 ng·h/mL
[1]; [24]
  half-life: 1.72 h
[1]; male, ICR, mouse, plasma, oral intragastric administration 5 mg/kg, read-out: bioavailability
  bioavailability: 107%
[1]; [25]
  bioavailability: 107%
[2]
  IC50: 5.9 nM
MDM2
  pIC50: 9.05
